Series [1] concerns HEK293. Nature of the series: Cytotoxicity against HEK293 cells at high concentration incubated for 48 hrs in presence of 4-(4-(3-(4-chloro-3-(trifluoromethyl)phenyl)ureido)phenoxy)-N-(prop-2-yn-1-yl)picolinamide by MTT assay. The format is toxicity, cell-based. The conditions noted are these: human, hek293, 48 h. A general note: Tetrazolium dyes change colour on reduction, which living cells bring about.

Series [2] addresses T1, Ephrin type-B receptor 4 (Homo sapiens) (UniProt P54760).
T1 sequence (whole entry): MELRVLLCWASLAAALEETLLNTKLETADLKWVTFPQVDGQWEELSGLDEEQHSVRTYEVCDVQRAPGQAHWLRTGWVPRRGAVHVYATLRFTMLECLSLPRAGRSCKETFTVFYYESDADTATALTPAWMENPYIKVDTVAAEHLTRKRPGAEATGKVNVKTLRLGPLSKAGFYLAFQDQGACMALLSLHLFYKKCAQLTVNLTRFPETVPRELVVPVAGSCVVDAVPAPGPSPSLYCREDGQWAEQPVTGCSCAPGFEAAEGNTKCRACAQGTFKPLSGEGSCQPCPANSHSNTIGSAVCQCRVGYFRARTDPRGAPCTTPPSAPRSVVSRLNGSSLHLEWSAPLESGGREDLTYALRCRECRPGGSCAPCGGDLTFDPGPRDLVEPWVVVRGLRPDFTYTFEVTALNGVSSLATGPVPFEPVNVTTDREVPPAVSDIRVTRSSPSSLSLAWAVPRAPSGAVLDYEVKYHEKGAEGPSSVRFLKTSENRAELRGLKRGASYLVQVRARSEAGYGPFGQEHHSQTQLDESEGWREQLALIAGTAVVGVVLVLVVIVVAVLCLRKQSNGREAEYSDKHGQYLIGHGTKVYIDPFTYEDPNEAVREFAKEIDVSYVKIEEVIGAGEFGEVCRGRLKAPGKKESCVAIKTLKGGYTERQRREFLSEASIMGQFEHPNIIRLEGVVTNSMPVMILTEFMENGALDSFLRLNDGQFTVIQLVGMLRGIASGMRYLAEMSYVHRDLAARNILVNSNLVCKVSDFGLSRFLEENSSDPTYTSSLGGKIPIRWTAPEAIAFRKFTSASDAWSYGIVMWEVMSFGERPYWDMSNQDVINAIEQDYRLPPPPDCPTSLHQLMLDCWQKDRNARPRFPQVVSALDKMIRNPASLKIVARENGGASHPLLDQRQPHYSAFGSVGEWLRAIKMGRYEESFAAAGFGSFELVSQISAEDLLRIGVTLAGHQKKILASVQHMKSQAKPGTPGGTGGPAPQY
Nature of the series: Induction of EphB4 degradation in human U87 cells at 10 uM incubated for 48 hrs in presence of 4-(4-(3-(4-chloro-3-(trifluoromethyl)phenyl)ureido)phenoxy)-N-(prop-2-yn-1-yl)picolinamide by Western blot analysis. The format is cell-based. A general note: In western blotting, separated proteins are transferred to a membrane and probed.

Series [3] deals with U-87 MG. Nature of the series: Induction of apoptosis in human U87 cells assessed as early apoptotic cells at 0.1 uM incubated for 48 hrs in presence of 4-(4-(3-(4-chloro-3-(trifluoromethyl)phenyl)ureido)phenoxy)-N-(prop-2-yn-1-yl)picolinamide by Annexin V-FLTC/PI staining based flow cytometry (reference value: 8.95 %). The format is functional, U-87MG ATCC. A general note: Flow cytometry measures light scatter and fluorescence of single cells or particles in a stream.

The subject of series [4] is U-87 MG. Nature of the series: Induction of apoptosis in human U87 cells assessed as viable cells at 1 uM incubated for 48 hrs in presence of 4-(4-(3-(4-chloro-3-(trifluoromethyl)phenyl)ureido)phenoxy)-N-(prop-2-yn-1-yl)picolinamide by Annexin V-FLTC/PI staining based flow cytometry (reference value: 86.74 %). In kind it is functional, U-87MG ATCC. The conditions noted are these: read-out: Activity.

The test system of series [5] is U-87 MG. Nature of the series: Induction of apoptosis in human U87 cells assessed as early apoptotic cells at 5 uM incubated for 48 hrs in presence of 4-(4-(3-(4-chloro-3-(trifluoromethyl)phenyl)ureido)phenoxy)-N-(prop-2-yn-1-yl)picolinamide by Annexin V-FLTC/PI staining based flow cytometry (reference value: 8.95 %). In kind it is functional, U-87MG ATCC.
The test system of series [6] is U-87 MG. Nature of the series: Induction of apoptosis in human U87 cells assessed as viable cells at 10 uM incubated for 48 hrs in presence of 4-(4-(3-(4-chloro-3-(trifluoromethyl)phenyl)ureido)phenoxy)-N-(prop-2-yn-1-yl)picolinamide by Annexin V-FLTC/PI staining based flow cytometry (reference value: 86.74 %). The conditions noted are these: read-out: Activity. In kind it is functional, U-87MG ATCC.

In series [7] the test system is U-87 MG. Nature of the series: Induction of apoptosis in human U87 cells assessed as early apoptotic cells at 10 uM incubated for 48 hrs in presence of 4-(4-(3-(4-chloro-3-(trifluoromethyl)phenyl)ureido)phenoxy)-N-(prop-2-yn-1-yl)picolinamide by Annexin V-FLTC/PI staining based flow cytometry (reference value: 8.95 %). The format is functional, U-87MG ATCC.
Series [8] relates to U-87 MG. Nature of the series: Induction of apoptosis in human U87 cells assessed as viable cells at 20 uM incubated for 48 hrs in presence of 4-(4-(3-(4-chloro-3-(trifluoromethyl)phenyl)ureido)phenoxy)-N-(prop-2-yn-1-yl)picolinamide by Annexin V-FLTC/PI staining based flow cytometry (reference value: 86.74 %). In kind it is functional, U-87MG ATCC. To be noted: read-out: Activity.

For series [9], the system named is HEK293. Nature of the series: Cytotoxicity against HEK293 cells at high concentration incubated for 48 hrs in presence of 4-azido-N-(2-(2,6-dioxopiperidin-3-yl)-1,3-dioxoisoindolin-4-yl)butanamide by MTT assay. In kind it is toxicity, cell-based. To be noted: human, hek293, 48 h.
Series [10] concerns HEK293. Nature of the series: Cytotoxicity against HEK293 cells at high concentration incubated for 48 hrs in presence of (2S,4R)-1-((S)-2-(5-azidopentanamido)-3,3-dimethylbutanoyl)-4-hydroxy-N-(4-(4-methylthiazol-5-yl)benzyl)pyrrolidine-2-carboxamide by MTT assay. The format is toxicity, cell-based. The conditions noted are these: human, hek293, 48 h.
Series [11] deals with Platelet-derived growth factor receptor beta (Homo sapiens) (UniProt P09619). Nature of the series: Induction of PDGFR-beta degradation in human U87 cells at 10 uM incubated for 48 hrs in presence of 4-azido-N-(2-(2,6-dioxopiperidin-3-yl)-1,3-dioxoisoindolin-4-yl)butanamide by Western blot analysis. In kind it is cell-based.
Chain of Platelet-derived growth factor receptor beta (Homo sapiens) (P09619 whole entry): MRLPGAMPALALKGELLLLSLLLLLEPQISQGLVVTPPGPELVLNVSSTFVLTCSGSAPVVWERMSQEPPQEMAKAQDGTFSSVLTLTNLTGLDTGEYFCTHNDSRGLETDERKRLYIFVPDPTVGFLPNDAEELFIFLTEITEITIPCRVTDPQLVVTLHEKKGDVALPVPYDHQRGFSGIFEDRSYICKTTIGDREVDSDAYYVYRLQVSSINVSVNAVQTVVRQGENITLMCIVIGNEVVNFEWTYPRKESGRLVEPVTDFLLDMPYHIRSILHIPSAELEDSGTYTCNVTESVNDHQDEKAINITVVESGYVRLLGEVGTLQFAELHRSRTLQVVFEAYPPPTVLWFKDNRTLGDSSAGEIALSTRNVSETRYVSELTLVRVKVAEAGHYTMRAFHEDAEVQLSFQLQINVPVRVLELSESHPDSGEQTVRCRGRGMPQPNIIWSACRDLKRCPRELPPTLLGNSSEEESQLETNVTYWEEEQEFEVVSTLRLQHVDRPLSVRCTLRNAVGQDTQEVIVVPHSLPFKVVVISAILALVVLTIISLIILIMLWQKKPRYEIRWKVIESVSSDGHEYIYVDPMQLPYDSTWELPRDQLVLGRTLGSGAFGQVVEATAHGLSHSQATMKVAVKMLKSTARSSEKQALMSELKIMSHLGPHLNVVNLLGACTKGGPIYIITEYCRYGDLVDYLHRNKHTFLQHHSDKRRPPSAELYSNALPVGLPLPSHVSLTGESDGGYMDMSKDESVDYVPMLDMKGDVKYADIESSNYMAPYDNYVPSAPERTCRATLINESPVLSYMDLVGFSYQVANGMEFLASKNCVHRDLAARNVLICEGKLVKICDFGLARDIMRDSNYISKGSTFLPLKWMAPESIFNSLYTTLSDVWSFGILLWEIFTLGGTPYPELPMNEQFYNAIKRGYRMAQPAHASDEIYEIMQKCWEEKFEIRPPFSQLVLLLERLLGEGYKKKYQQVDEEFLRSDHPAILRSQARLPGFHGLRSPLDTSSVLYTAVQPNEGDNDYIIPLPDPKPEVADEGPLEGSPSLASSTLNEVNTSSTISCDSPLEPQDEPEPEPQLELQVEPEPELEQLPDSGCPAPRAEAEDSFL
In series [12] the target is T1, Ephrin type-B receptor 4 (Homo sapiens). Nature of the series: Induction of EphB4 degradation in human U87 cells at 2 uM incubated for 48 hrs in presence of (2S,4R)-1-((S)-2-(5-azidopentanamido)-3,3-dimethylbutanoyl)-4-hydroxy-N-(4-(4-methylthiazol-5-yl)benzyl)pyrrolidine-2-carboxamide by Western blot analysis. In kind it is cell-based.
The subject of series [13] is U-87 MG. Nature of the series: Induction of apoptosis in human U87 cells assessed as viable cells at 10 uM incubated for 48 hrs in presence of (2S,4R)-1-((S)-2-(5-azidopentanamido)-3,3-dimethylbutanoyl)-4-hydroxy-N-(4-(4-methylthiazol-5-yl)benzyl)pyrrolidine-2-carboxamide by Annexin V-FLTC/PI staining based flow cytometry (reference value: 86.74 %). In kind it is functional, U-87MG ATCC. The conditions noted are these: read-out: Activity.

The test system of series [14] is U-87 MG. Nature of the series: Induction of apoptosis in human U87 cells assessed as late apoptotic cells at 10 uM incubated for 48 hrs in presence of (2S,4R)-1-((S)-2-(5-azidopentanamido)-3,3-dimethylbutanoyl)-4-hydroxy-N-(4-(4-methylthiazol-5-yl)benzyl)pyrrolidine-2-carboxamide by Annexin V-FLTC/PI staining based flow cytometry (reference value: 3.71 %). In kind it is functional, U-87MG ATCC.

Series [15] concerns U-87 MG. Nature of the series: Induction of apoptosis in human U87 cells assessed as early apoptotic cells at 20 uM incubated for 48 hrs in presence of (2S,4R)-1-((S)-2-(5-azidopentanamido)-3,3-dimethylbutanoyl)-4-hydroxy-N-(4-(4-methylthiazol-5-yl)benzyl)pyrrolidine-2-carboxamide by Annexin V-FLTC/PI staining based flow cytometry (reference value: 8.95 %). The format is functional, U-87MG ATCC.

Structures are written as SMILES. Calls of active or inactive are those of the source. The rule behind the calls is not given here.

Regarding `[N-]=[N+]=NCCCC(=O)Nc1cccc2c1C(=O)N(C1CCC(=O)NC1=O)C2=O` (stereo not given), the Activity entry is “Toxic” with HEK293 [1], 10.27% in the series on U-87 MG [3], 0.05% in the series with U-87 MG [5] and 0.08% in the series on U-87 MG [7]. For the same compound, in series [2], the result was Active. Moreover, in the series on U-87 MG [4], the viability at 1 µM amounted to 81.6%. The viability at 10 µM in the series with U-87 MG [6] amounted to 1.74%. Further, the viability at 20 µM with U-87 MG [8] came to 9.88%.

For `C#CCNC(=O)c1cc(Oc2ccc(NC(=O)Nc3ccc(Cl)c(C(F)(F)F)c3)cc2)ccn1`, the Activity entry in the series with HEK293 [9] is “Toxic”; with HEK293 [10] it was “Toxic”; with U-87 MG [14], 72.58%; in the series on U-87 MG [15] it was 4.73%. The result in [11] and in series [12] was Active. Moreover, the viability at 10 µM with U-87 MG [13] came out at 1.74%.

Source of the values: ChEMBL document CHEMBL5620355, “Discovery of intracellular self-assembly protein degraders driven by tumor-specific activatable bioorthogonal reaction” (Eur J Med Chem, 2023).
